This passage reports Ki results from patent US6518291B1, “Inhibitors of IMPDH enzyme” (Vertex Pharmaceuticals, Incorporated, priority 1997, dated 2003).

The experiment has as its target IMPDH human type II (Homo sapiens, UniProt P12268). Kind of experiment: IMPDH Activity Inhibition Assay (spectrophotometric, NADH formation at 340 nm). It is filed as biochemical. To be noted: 37° C., tight-binding equations of Henderson. How it is done: We measured the inhibition constants of the compounds listed in Table II utilizing the following protocol:
IMP dehydrogenase activity was assayed following an adaptation of the method first reported by Magasanik. [Magasanik, B. Moyed, H. S. and Gehring L. B. (1957) J. Biol. Chem. 226, 339]. Enzyme activity was measured spectrophotometrically, by monitoring the increase in absorbance at 340 nm due to the formation of NADH (ε340 is 6220 M^−1 cm^−1). The reaction mixture contained 0.1 M Tris pH 8.0, 0.1 M KCl, 3 mM EDTA, 2 mM DTT, […] and enzyme (IMPDH human type II) at a concentration of 15 to 50 nM. This solution is incubated at 37° C. for 10 minutes. The reaction is started by adding NAD to a final concentration of […] and the initial rate is measured by following the linear increase in absorbance at 340 nm for 10 minutes. For reading in a standard spectrophotometer (path length 1 cm) the final volume in the cuvette is 1.0 ml. The assay has also been adapted to a 96 well microtiter plate format; in this case the concentrations of all the reagents remain the same and the final volume is decreased to 200 μl.
For the analysis of inhibitors, the compound in question is dissolved in DMSO to a final concentration of 20 mM and added to the initial assay mixture for preincubation with the enzyme at a final volume of 2-5% (v/v). The reaction is started by the addition of NAD, and the initial rates measured as above. Ki determinations are made by measuring the initial velocities in the presence of varying amounts of inhibitor and fitting the data using the tight-binding equations of Henderson (Henderson, P. J. F. (1972) Biochem. J. 127, 321].
Ki values are expressed in nM. Category “A” indicates 0.01 to 500 nm activity, category “B” indicates 501-5,000 nm activity, category “C” indicates 5,001 to 15,000 nm activity, category “D” indicates greater than 15,000 nm activity. The designation “ND” is used where a given compound was not tested.
The compound `Cc1ccc(Nc2nc3ccccc3[nH]2)cc1` [Compound 4] registered a Ki of more than 15000 nM.

In the case of `Clc1cc(Nc2nc3ccccc3o2)ccc1-c1cnco1` [Compound 23], the Ki was 501 to 5000 nM. Take `COc1cc(Nc2nc3ccccc3[nH]2)ccc1C#N` [Compound 15]: the Ki lay in the range of 5000 to 15000 nM. The compound `COc1cc(Nc2nc3cc(C)ccc3o2)ccc1-c1cnco1` [Compound 22] yielded a Ki of 501 to 5000 nM. In turn, `COc1cc(Nc2nc3ccccc3o2)ccc1-c1cnco1` [Compound 8] had a Ki of 0.01 to 500 nM. With `COc1cccc(Nc2nc3ccccc3o2)c1` [Compound 24] the figure was more than 15000 nM; with `c1ccc2oc(Nc3ccc(-c4cnco4)cc3)nc2c1` [Compound 18], more than 15000 nM. With `COc1ccccc1Nc1nc2ccccc2s1` [Compound 7] the figure was more than 15000 nM; with `COc1cc(Nc2nc3cc(C)c(C)cc3o2)ccc1-c1cnco1` [Compound 17], 0.01 to 500 nM.

In turn, `COc1cc(Nc2nc3ccccc3[nH]2)ccc1-c1cnco1` [Compound 5] showed a Ki of 501 to 5000 nM.

Compound `COc1cc(Nc2nc3ccccc3s2)ccc1C#N` [Compound 13] showed a Ki of 5000 to 15000 nM.

In turn, `COc1cc(Nc2nc3ccc(CO)cc3[nH]2)ccc1-c1cnco1` [Compound 11] yielded a Ki of 501 to 5000 nM.

`COC(=O)c1ccc2nc(Nc3ccc(-c4cnco4)c(OC)c3)[nH]c2c1` [Compound 10] came in with a Ki of 0.01 to 500 nM. In the case of `c1ccc(Nc2nc3ccccc3[nH]2)cc1` [Compound 2] it was more than 15000 nM; in that of `COc1ccc(Nc2nc3ccccc3o2)cc1OC` [Compound 19], more than 15000 nM; in that of `N#Cc1ccc(Nc2nc3ccccc3o2)cc1Cl` [Compound 20], more than 15000 nM. In the case of `COc1ccccc1Nc1nc2ccccc2o1` [Compound 6] it was more than 15000 nM; in that of `COc1ccc(Nc2nc3ccccc3[nH]2)cc1` [Compound 3], more than 15000 nM; in that of `C=CCc1cccc2nc(Nc3ccc(-c4cnco4)c(OC)c3)oc12` [Compound 25], 0.01 to 500 nM.

As to `COc1cc(Nc2nc3c(C)cccc3[nH]2)ccc1-c1cnco1` [Compound 16], the inhibitory constant (Ki) fell in the range of 0.01 to 500 nM.

Take `COc1cc(Nc2nc3ccccc3o2)ccc1C#N` [Compound 21]: the Ki is more than 15000 nM. With `COc1cc(Nc2nc3cc(C)ccc3o2)ccc1-c1cnco1` [Compound 12] the figure was 0.01 to 500 nM; with `COc1cc(Nc2nc3ccc(C)cc3o2)ccc1-c1cnco1` [Compound 14], 0.01 to 500 nM. In the case of `COc1cc(Nc2nc3ccccc3s2)ccc1-c1cnco1` [Compound 9] it was 0.01 to 500 nM.

A word on the Ki: it is a measure of affinity in units of concentration, obtained from inhibition or displacement. The low end stands for tighter binding, the high end for weaker binding.
